Results: the NIST ThermoML archive (doi:10.1016/j.jct.2015.08.014)

Assay: xn = mol fraction of the nth substance listed
Conditions: 273.15 K, 100 kPa, Liquid; for electrical conductivity: Alternating current cell with electrodes; for viscosity: Capillary tube (Ostwald / Ubbelohde) method

CCCC[N+]1(C)CCCC1.N#CN=C=[N-] [1-butyl-1-methylpyrrolidinium dicyanamide] + O=C1CCCO1
Conditions	electrical conductivity [S/m]	viscosity [mPa·s]
x1 = 0.0463	0.977	–
x1 = 0.0987	1.43	4.69
x1 = 0.1449	1.56	–
x1 = 0.1859	1.634	7.2
x1 = 0.2493	1.517	–
x1 = 0.3029	1.42	12.03
x1 = 0.3845	1.25	–
x1 = 0.4985	1.03	24.9
x1 = 0.6954	0.742	45.65
x1 = 0.9013	0.562	76.07
x1 = 1	0.523	93.95

Conditions	electrical conductivity [S/m]
Frequency=0.0005 MHz, x1 = 0.0463	0.97
Frequency=0.0005 MHz, x1 = 0.0987	1.41
Frequency=0.0005 MHz, x1 = 0.1449	1.56
Frequency=0.0005 MHz, x1 = 0.1859	1.619
Frequency=0.0005 MHz, x1 = 0.2493	1.513
Frequency=0.0005 MHz, x1 = 0.3029	1.42
Frequency=0.0005 MHz, x1 = 0.3845	1.25
Frequency=0.0005 MHz, x1 = 0.4985	1.03
Frequency=0.0005 MHz, x1 = 0.6954	0.741
Frequency=0.0005 MHz, x1 = 0.9013	0.561
Frequency=0.0005 MHz, x1 = 1	0.522
Frequency=0.001 MHz, x1 = 0.0463	0.973
Frequency=0.001 MHz, x1 = 0.0987	1.42
Frequency=0.001 MHz, x1 = 0.1449	1.56
Frequency=0.001 MHz, x1 = 0.1859	1.625
Frequency=0.001 MHz, x1 = 0.2493	1.515
Frequency=0.001 MHz, x1 = 0.3029	1.42
Frequency=0.001 MHz, x1 = 0.3845	1.25
Frequency=0.001 MHz, x1 = 0.4985	1.03
Frequency=0.001 MHz, x1 = 0.6954	0.741
Frequency=0.001 MHz, x1 = 0.9013	0.561
Frequency=0.001 MHz, x1 = 1	0.522
Frequency=0.0015 MHz, x1 = 0.0463	0.975
Frequency=0.0015 MHz, x1 = 0.0987	1.42
Frequency=0.0015 MHz, x1 = 0.1449	1.56
Frequency=0.0015 MHz, x1 = 0.1859	1.627
Frequency=0.0015 MHz, x1 = 0.2493	1.515
Frequency=0.0015 MHz, x1 = 0.3029	1.42
Frequency=0.0015 MHz, x1 = 0.3845	1.25
Frequency=0.0015 MHz, x1 = 0.4985	1.03
Frequency=0.0015 MHz, x1 = 0.6954	0.741
Frequency=0.0015 MHz, x1 = 0.9013	0.562
Frequency=0.0015 MHz, x1 = 1	0.522
Frequency=0.002 MHz, x1 = 0.0463	0.975
Frequency=0.002 MHz, x1 = 0.0987	1.42
Frequency=0.002 MHz, x1 = 0.1449	1.56
Frequency=0.002 MHz, x1 = 0.1859	1.629
Frequency=0.002 MHz, x1 = 0.2493	1.516
Frequency=0.002 MHz, x1 = 0.3029	1.42
Frequency=0.002 MHz, x1 = 0.3845	1.25
Frequency=0.002 MHz, x1 = 0.4985	1.03
Frequency=0.002 MHz, x1 = 0.6954	0.742
Frequency=0.002 MHz, x1 = 0.9013	0.562
Frequency=0.002 MHz, x1 = 1	0.522
Frequency=0.0025 MHz, x1 = 0.0463	0.976
Frequency=0.0025 MHz, x1 = 0.0987	1.42
Frequency=0.0025 MHz, x1 = 0.1449	1.56
Frequency=0.0025 MHz, x1 = 0.1859	1.63
Frequency=0.0025 MHz, x1 = 0.2493	1.516
Frequency=0.0025 MHz, x1 = 0.3029	1.42
Frequency=0.0025 MHz, x1 = 0.3845	1.25
Frequency=0.0025 MHz, x1 = 0.4985	1.03
Frequency=0.0025 MHz, x1 = 0.6954	0.742
Frequency=0.0025 MHz, x1 = 0.9013	0.562
Frequency=0.0025 MHz, x1 = 1	0.522
Frequency=0.003 MHz, x1 = 0.0463	0.976
Frequency=0.003 MHz, x1 = 0.0987	1.42
Frequency=0.003 MHz, x1 = 0.1449	1.56
Frequency=0.003 MHz, x1 = 0.1859	1.631
Frequency=0.003 MHz, x1 = 0.2493	1.516
Frequency=0.003 MHz, x1 = 0.3029	1.42
Frequency=0.003 MHz, x1 = 0.3845	1.25
Frequency=0.003 MHz, x1 = 0.4985	1.03
Frequency=0.003 MHz, x1 = 0.6954	0.742
Frequency=0.003 MHz, x1 = 0.9013	0.562
Frequency=0.003 MHz, x1 = 1	0.522
Frequency=0.00347222 MHz, x1 = 0.0463	0.977
Frequency=0.00347222 MHz, x1 = 0.0987	1.42
Frequency=0.00347222 MHz, x1 = 0.1449	1.56
Frequency=0.00347222 MHz, x1 = 0.1859	1.632
Frequency=0.00347222 MHz, x1 = 0.2493	1.516
Frequency=0.00347222 MHz, x1 = 0.3029	1.42
Frequency=0.00347222 MHz, x1 = 0.3845	1.25
Frequency=0.00347222 MHz, x1 = 0.4985	1.03
Frequency=0.00347222 MHz, x1 = 0.6954	0.742
Frequency=0.00347222 MHz, x1 = 0.9013	0.562
Frequency=0.00347222 MHz, x1 = 1	0.523
Frequency=0.004 MHz, x1 = 0.0463	0.977
Frequency=0.004 MHz, x1 = 0.0987	1.42
Frequency=0.004 MHz, x1 = 0.1449	1.56
Frequency=0.004 MHz, x1 = 0.1859	1.632
Frequency=0.004 MHz, x1 = 0.2493	1.516
Frequency=0.004 MHz, x1 = 0.3029	1.42
Frequency=0.004 MHz, x1 = 0.3845	1.25
Frequency=0.004 MHz, x1 = 0.4985	1.03
Frequency=0.004 MHz, x1 = 0.6954	0.742
Frequency=0.004 MHz, x1 = 0.9013	0.562
Frequency=0.004 MHz, x1 = 1	0.523
Frequency=0.00446429 MHz, x1 = 0.0463	0.977
Frequency=0.00446429 MHz, x1 = 0.0987	1.42
Frequency=0.00446429 MHz, x1 = 0.1449	1.56
Frequency=0.00446429 MHz, x1 = 0.1859	1.633
Frequency=0.00446429 MHz, x1 = 0.2493	1.516
Frequency=0.00446429 MHz, x1 = 0.3029	1.42
Frequency=0.00446429 MHz, x1 = 0.3845	1.25
Frequency=0.00446429 MHz, x1 = 0.4985	1.03
Frequency=0.00446429 MHz, x1 = 0.6954	0.742
Frequency=0.00446429 MHz, x1 = 0.9013	0.562
Frequency=0.00446429 MHz, x1 = 1	0.523
Frequency=0.005 MHz, x1 = 0.0463	0.977
Frequency=0.005 MHz, x1 = 0.0987	1.42
Frequency=0.005 MHz, x1 = 0.1449	1.56
Frequency=0.005 MHz, x1 = 0.1859	1.633
Frequency=0.005 MHz, x1 = 0.2493	1.517
Frequency=0.005 MHz, x1 = 0.3029	1.42
Frequency=0.005 MHz, x1 = 0.3845	1.25
Frequency=0.005 MHz, x1 = 0.4985	1.03
Frequency=0.005 MHz, x1 = 0.6954	0.742
Frequency=0.005 MHz, x1 = 0.9013	0.562
Frequency=0.005 MHz, x1 = 1	0.523
Frequency=0.005454 MHz, x1 = 0.0463	0.977
Frequency=0.005454 MHz, x1 = 0.0987	1.43
Frequency=0.005454 MHz, x1 = 0.1449	1.56
Frequency=0.005454 MHz, x1 = 0.1859	1.634
Frequency=0.005454 MHz, x1 = 0.2493	1.517
Frequency=0.005454 MHz, x1 = 0.3029	1.42
Frequency=0.005454 MHz, x1 = 0.3845	1.25
Frequency=0.005454 MHz, x1 = 0.4985	1.03
Frequency=0.005454 MHz, x1 = 0.6954	0.742
Frequency=0.005454 MHz, x1 = 0.9013	0.562
Frequency=0.005454 MHz, x1 = 1	0.523
Frequency=0.006 MHz, x1 = 0.0463	0.977
Frequency=0.006 MHz, x1 = 0.0987	1.43
Frequency=0.006 MHz, x1 = 0.1449	1.56
Frequency=0.006 MHz, x1 = 0.1859	1.634
Frequency=0.006 MHz, x1 = 0.2493	1.517
Frequency=0.006 MHz, x1 = 0.3029	1.42
Frequency=0.006 MHz, x1 = 0.3845	1.25
Frequency=0.006 MHz, x1 = 0.4985	1.03
Frequency=0.006 MHz, x1 = 0.6954	0.742
Frequency=0.006 MHz, x1 = 0.9013	0.562
Frequency=0.006 MHz, x1 = 1	0.523
Frequency=0.00652174 MHz, x1 = 0.0463	0.978
Frequency=0.00652174 MHz, x1 = 0.0987	1.43
Frequency=0.00652174 MHz, x1 = 0.1449	1.56
Frequency=0.00652174 MHz, x1 = 0.1859	1.634
Frequency=0.00652174 MHz, x1 = 0.2493	1.517
Frequency=0.00652174 MHz, x1 = 0.3029	1.42
Frequency=0.00652174 MHz, x1 = 0.3845	1.25
Frequency=0.00652174 MHz, x1 = 0.4985	1.03
Frequency=0.00652174 MHz, x1 = 0.6954	0.742
Frequency=0.00652174 MHz, x1 = 0.9013	0.563
Frequency=0.00652174 MHz, x1 = 1	0.523
Frequency=0.00694444 MHz, x1 = 0.0463	0.978
Frequency=0.00694444 MHz, x1 = 0.0987	1.43
Frequency=0.00694444 MHz, x1 = 0.1449	1.56
Frequency=0.00694444 MHz, x1 = 0.1859	1.634
Frequency=0.00694444 MHz, x1 = 0.2493	1.517
Frequency=0.00694444 MHz, x1 = 0.3029	1.42
Frequency=0.00694444 MHz, x1 = 0.3845	1.25
Frequency=0.00694444 MHz, x1 = 0.4985	1.03
Frequency=0.00694444 MHz, x1 = 0.6954	0.742
Frequency=0.00694444 MHz, x1 = 0.9013	0.563
Frequency=0.00694444 MHz, x1 = 1	0.523
Frequency=0.0075 MHz, x1 = 0.0463	0.978
Frequency=0.0075 MHz, x1 = 0.0987	1.43
Frequency=0.0075 MHz, x1 = 0.1449	1.56
Frequency=0.0075 MHz, x1 = 0.1859	1.634
Frequency=0.0075 MHz, x1 = 0.2493	1.517
Frequency=0.0075 MHz, x1 = 0.3029	1.42
Frequency=0.0075 MHz, x1 = 0.3845	1.25
Frequency=0.0075 MHz, x1 = 0.4985	1.03
Frequency=0.0075 MHz, x1 = 0.6954	0.742
Frequency=0.0075 MHz, x1 = 0.9013	0.563
Frequency=0.0075 MHz, x1 = 1	0.523
Frequency=0.008 MHz, x1 = 0.0463	0.978
Frequency=0.008 MHz, x1 = 0.0987	1.43
Frequency=0.008 MHz, x1 = 0.1449	1.56
Frequency=0.008 MHz, x1 = 0.1859	1.635
Frequency=0.008 MHz, x1 = 0.2493	1.517
Frequency=0.008 MHz, x1 = 0.3029	1.42
Frequency=0.008 MHz, x1 = 0.3845	1.25
Frequency=0.008 MHz, x1 = 0.4985	1.03
Frequency=0.008 MHz, x1 = 0.6954	0.742
Frequency=0.008 MHz, x1 = 0.9013	0.563
Frequency=0.008 MHz, x1 = 1	0.523
Frequency=0.00857143 MHz, x1 = 0.0463	0.978
Frequency=0.00857143 MHz, x1 = 0.0987	1.43
Frequency=0.00857143 MHz, x1 = 0.1449	1.57
Frequency=0.00857143 MHz, x1 = 0.1859	1.635
Frequency=0.00857143 MHz, x1 = 0.2493	1.517
Frequency=0.00857143 MHz, x1 = 0.3029	1.42
Frequency=0.00857143 MHz, x1 = 0.3845	1.25
Frequency=0.00857143 MHz, x1 = 0.4985	1.03
Frequency=0.00857143 MHz, x1 = 0.6954	0.742
Frequency=0.00857143 MHz, x1 = 0.9013	0.563
Frequency=0.00857143 MHz, x1 = 1	0.523
Frequency=0.00892857 MHz, x1 = 0.0463	0.978
Frequency=0.00892857 MHz, x1 = 0.0987	1.43
Frequency=0.00892857 MHz, x1 = 0.1449	1.57
Frequency=0.00892857 MHz, x1 = 0.1859	1.635
Frequency=0.00892857 MHz, x1 = 0.2493	1.517
Frequency=0.00892857 MHz, x1 = 0.3029	1.42
Frequency=0.00892857 MHz, x1 = 0.3845	1.25
Frequency=0.00892857 MHz, x1 = 0.4985	1.03
Frequency=0.00892857 MHz, x1 = 0.6954	0.742
